Experimental data published in patent publication US8450359B2, “Polymer-supported photosensitizers for the generation of singlet oxygen” (The Queen's University of Belfast, priority 2006, dated 2013).
Where “and” joins values, the source holds several entries; their conditions need not be identical. Equal values may be shown once. Read-outs that look alike come from different tables or passages of the source.

Key:
[1] = Transient absorbance (triplet lifetime) measurements; format: physicochemical
Procedure: For the transient absorption and singlet oxygen studies, the second harmonic output from a Q-switched Nd:YAG laser was used as the excitation source and the sample was mounted at […] to the excitation beam. A pulse energy of 1 mJ was used for the measurements to avoid burning the sample. For transient absorption measurements, light from a xenon arc lamp (Applied Photophysics Ltd., 150 W) traveling at 90° to the excitation beam was directed through the sample and into a monochromator (Applied Photophysics Ltd., 1200 gr/mm grating.) fitted with an IP28 photomultiplier detector connected to a sampling oscilloscope (Tektronix TDS 3032). A 532 nm holographic notch filter (Kaiser Optical Systems Inc.) was mounted in front of the monoochromator entrance slit to reduce the effect of laser scatter on the signal. Processing of the data was carried out using SigmaPlot for Windows (Version 8.0).
Transient absorbance difference (ΔA) measurements were carried out under oxygen-bubbled conditions and after degassing by nitrogen-bubbling for 20 minutes. […] However, N2 bubbling was used in the present studies as freeze-pump-thaw was inappropriate for the polymer samples.

[2] = system: Pseudomonas aeruginosa; conditions: for dark activity: intense light series, dark control; for time to activity in light: intense light
Procedure: (§1) Studies were performed on the photosensitising activity of porphyrin solutions against Staphylococcus epidermidis, Pseudomonas aeruginosa and Proteus mirabilis as these organisms have been isolated from culture-positive cases of infectious endophthalmitis. Studies were performed by adding a porphyrin solution to a culture of the test organism, exposing this mixture to daylight or to a more intense light source comprising 4×250 W halogen bulbs, and then taking a 1 mL aliquot at certain times to determine the viable count.
(§2) 10 mcg/mL solutions of the three porphyrins were investigated. Initially the solutions were made up at the desired concentration and then double filter sterilised.
(§3) Inocula of approximately 1×10^5 cfu/mL were utilised throughout the microbiological studies of porphyrin solutions. Activity was examined both in normal daylight conditions and using a more intense light source comprising 4×250 W halogen bulbs, cooling the temperature to around 32° C.
(§4) Unfiltered and double filter sterilised 10 mcg/mL solutions were used to examine the effect of double filtration on activity.

[3] = system: Staphylococcus epidermidis; conditions: for time to activity on illumination: intense light; for time to dark activity: daylight / laboratory light series; for time to activity in the dark: intense light series
Procedure: as §1, §2, §3, §4

[4] = system: Proteus mirabilis; conditions: for reduction in growth / viable count: 24 hour study, after 24 hours; for reduction in viable count: more intense light
Procedure: as §1, §2, §3, §4

[5] = in solution; cited from earlier work
[6] = D2O, single exponential decay following the rapid component
Source text: The ^1O2 detection system was a liquid-nitrogen-cooled Indium Gallium Arsenide (InGaAs) detector (Judson Technologies Inc, Montgomeryville, Pa., type J22D-M204-R01M-60-1.7) with a 1 mm^2 active area. The detector output was amplified using a Judson PA9 pre-amplifier and collected using a Tektronix TDS 3032 oscilloscope. To obtain acceptable signal-to-noise ratios 512 decays were summed for each reading. To minimise the effect of any inhomogeneity in the sample, readings from 8 different points were averaged, The singlet oxygen emission at 1270 nm was separated from the 1064 nm fundamental laser emission and other spurious emissions by use of a 1200 nm long pass filter (LP1200) and a 1292 nm band pass filter (BPO-1292-80), both supplied by Spectrogon UK Ltd.
Using this approach, the polymers prepared were pre-wetted in buffer prepared with D2O and dipped in porphyrin solutions also prepared from D2O.

[7] = one hour study, filtered solution
[8] = one hour study, unfiltered solution
[9] = one hour study, double filter sterilised solution
[10] = one hour study, unfiltered 10 mcg/mL solution
[11] = one hour study, daylight / laboratory light, unfiltered solution

Compound	τ1/μs ([1]; N2 bubbled)	τ1/μs ([1]; O2 bubbled)	time to activity on illumination [3, 7]	time to activity on illumination [3, 8]	reduction in growth / viable count ([4]; daylight)	reduction in viable count ([4]; by 5 hours)	dark activity ([2]; one hour study)	time to activity in light [2, 9]	time to activity in light [2, 10]	time to dark activity [3, 7]	time to activity (no growth) in light [3, 11]	time to activity in the dark [3, 7]	time to activity in the dark [3, 8]	further results
Cl.Cl.O=S(=O)(O)c1ccc(-c2c3nc(c(-c4ccc(S(=O)(=O)O)cc4)c4ccc([nH]4)c(-c4ccc(S(=O)(=O)O)cc4)c4nc(c(-c5ccc(S(=O)(=O)O)cc5)c5ccc2[nH]5)C=C4)C=C3)cc1 [TPPS, tetra(4-sulfonatophenyl)-porphine dihydrochloride]	227.5 ± 6.1 μs	0.760 ± 0.0023 μs	≤ 50 min	≤ 40 min	no reduction in viable count	did not show any photosensitising effect								reduction in the viable count ([2]; more intense source, by 5 hours illumination): one log cycle reduction; time to successful photoinactivation, complete kill ([3]; 24 hour study, daylight): 24 h; φ(1O2) [5]: 0.6717
C[N+](C)(C)c1ccc(-c2c3nc(c(-c4ccc([N+](C)(C)C)cc4)c4ccc([nH]4)c(-c4ccc([N+](C)(C)C)cc4)c4nc(c(-c5ccc([N+](C)(C)C)cc5)c5ccc2[nH]5)C=C4)C=C3)cc1.[Cl-].[Cl-].[Cl-].[Cl-] [TMAP, tetra(4N,N,N-trimethyl-anilinium)porphine tetrachloride]			≤ 10 min	≤ 10 min			some limited dark activity	≤ 30 min	≤ 30 min	not active in the dark	≤ 10 min	≤ 10 min	≤ 10 min	reduction of growth ([2]; 24 hour study, daylight, at 24 hours): 1 log cycle; activity ([2]; one hour study, daylight): no activity; time to dark activity (no growth in dark control) ([3]; one hour study, daylight series, unfiltered solution, dark control): ≤ 10 min; reduction in viable count ([4]; in 3 hours): three log cycle reduction; activity ([4]; one hour study, daylight): no activity
C[n+]1ccc(-c2c3nc(c(-c4cc[n+](C)cc4)c4ccc([nH]4)c(-c4cc[n+](C)cc4)c4nc(c(-c5cc[n+](C)cc5)c5ccc2[nH]5)C=C4)C=C3)cc1.Cc1ccc(S(=O)(=O)[O-])cc1.Cc1ccc(S(=O)(=O)[O-])cc1.Cc1ccc(S(=O)(=O)[O-])cc1.Cc1ccc(S(=O)(=O)[O-])cc1 [TMPyP, tetra(4N-methylpyridyl)porphine tetratosylate salt]	161 μs and 161.0 ± 4.51 μs	0.436 ± 0.00062 μs	≤ 10 min	≤ 10 min	1 log cycle	three log cycle reduction	not active in the dark	≤ 40 min	≤ 40 min	≤ 30 min	≤ 10 min	20 min	10 min	triplet lifetime, solution phase ([1]; under O2): 436 ns; photosensitising activity ([2]; 24 hour study, daylight, 10 mcg/mL solution, inoculum ca. 1×10^5 cfu/mL): no photosensitising activity; time to activity in light ([3]; one hour study, daylight / laboratory light, filtered solution): ≤ 10 min; 1O2 emission decay lifetime [6]: 62 μs
